# According to US12281363B2, “Methods for detecting antiviral-drug resistant virus” (Secretary of State for Health and Social Care, priority 2018, dated 2025):
# Where two headings read alike, the source gives them in different places.
# Test system: HSV-1
# Assay: Plaque reduction assay, HSV-1 clinical isolates on Vero cells
# Format: cell-based
# Conditions: Human alphaherpesvirus 1, Vero
# Text: Viral isolates were used to infect a sub-confluent monolayer of Vero cells at a concentration of 75 or 50 plaque forming units (PFU) per well for HSV-1 and HSV-2, respectively. […] CMC medium typically used to create a semisolid interface and prevents indiscrimate viral spreading. Other materials (e.g. agar) may also be used to create this interface.
# Cells were fixed with 10% formalin and stained with crystal violet before enumeration of the plaques (microscopic observation or use of fluorescent antibodies for detection is also suitable). The data obtained from these experiments were then expressed as percent inhibition of viral infectivity relative to the no drug control.
# Definitions of phenotypic drug susceptibility classification as sensitive or resistant were as follows: ACV, <3 μM or >40 μM; PCV, <10 μM or >40 μM; CDV, <24 μM or >30 μM; FOS, <250 μM or >400 μM; and ACV, <6.5 μM or >40 μM; PCV, <38 μM or >40 μM; FOS, <250 μM or >400 μM for HSV-1 and HSV-2, respectively. Any IC50 values falling in between these sensitive and resistant cut-offs were reported as intermediate resistance.
# The phenotype (i.e. reactivity to a drug) of the virus was characterised by the plaque reduction assay as described above.
compound,measurement,setting,value
"O=C(O)P(=O)(O)O [Foscarnet, foscarnet]",IC50,"isolate HPG033, HSV-1 TK I358L (1072A>C), also TK T287M, read-out: Drug susceptibility (IC50 value)",88.3 µM
same,IC50,"isolate HPG033, HSV-1 TK I358L (1072A>C), also TK T287M, read-out: Drug susceptibility Foscarnet (FOS)",< 250 µM
same,IC50,"isolate HPG033, HSV-1 pol N1046T (3137A>C), also TK T287M, pol A1169T, read-out: Drug susceptibility (IC50 value)",88.3 µM
same,IC50,"isolate HPG033, HSV-1 pol N1046T (3137A>C), also TK T287M, pol A1169T, read-out: Drug susceptibility Foscarnet (FOS)",< 250 µM
same,IC50,"isolate HPG035, HSV-1 pol S239L (716C>T), also pol S724N, read-out: Drug susceptibility (IC50 value)",701 µM
same,IC50,"isolate HPG035, HSV-1 pol S239L (716C>T), also pol S724N, read-out: Drug susceptibility Foscarnet (FOS)",> 400 µM
same,IC50,"isolate HPG037, HSV-1 TK L69M (205>A), also TK Y239H, read-out: Drug susceptibility Foscarnet (FOS)",< 250 µM
same,IC50,"isolate HPG037, HSV-1 TK R256W (766C>T), read-out: Drug susceptibility (IC50 value)",80 µM
same,IC50,"isolate HPG037, HSV-1 TK R256W (766C>T), read-out: Drug susceptibility Foscarnet (FOS)",< 250 µM
same,IC50,"isolate HPG037, HSV-1 TK Y239H (715T>C), read-out: Drug susceptibility (IC50 value)",80 µM
same,IC50,"isolate HPG037, HSV-1 TK Y239H (715T>C), read-out: Drug susceptibility Foscarnet (FOS)",< 250 µM
same,IC50,"isolate HPG039, HSV-1 TK 85* or H58fs (169delC, 170delC, 171delC, or 172delC), read-out: Drug susceptibility (IC50 value)",59.8 µM
same,IC50,"isolate HPG039, HSV-1 TK 85* or H58fs (169delC, 170delC, 171delC, or 172delC), read-out: Drug susceptibility Foscarnet (FOS)",< 250 µM
same,IC50,"isolate HPG040, HSV-1 pol S911N (2732G>A), also TK deletion (C) nt 896-900, pol A1169T, read-out: Drug susceptibility (IC50 value)",137 µM
same,IC50,"isolate HPG040, HSV-1 pol S911N (2732G>A), also TK deletion (C) nt 896-900, pol A1169T, read-out: Drug susceptibility Foscarnet (FOS)",< 250 µM
same,IC50,"isolate HPG041, HSV-1 pol S911N (2732G>A), also pol A1169T, read-out: Drug susceptibility (IC50 value)",89.5 µM
same,IC50,"isolate HPG041, HSV-1 pol S911N (2732G>A), also pol A1169T, read-out: Drug susceptibility Foscarnet (FOS)",< 250 µM
same,IC50,"isolate HPG042, HSV-1 pol A972V (2915C>T), also TK deletion (C) nt 881-885, pol A1169T, read-out: Drug susceptibility (IC50 value)",60.7 µM
same,IC50,"isolate HPG042, HSV-1 pol A972V (2915C>T), also TK deletion (C) nt 881-885, pol A1169T, read-out: Drug susceptibility Foscarnet (FOS)",< 250 µM
same,IC50,"isolate HPG042, HSV-1 pol G22R (64G>A), also TK deletion (C) nt 881-885, pol A1169T, read-out: Drug susceptibility (IC50 value)",60.7 µM
same,IC50,"isolate HPG042, HSV-1 pol G22R (64G>A), also TK deletion (C) nt 881-885, pol A1169T, read-out: Drug susceptibility Foscarnet (FOS)",< 250 µM
same,IC50,"isolate HPG043, HSV-1 TK 183* (437_438insA), read-out: Drug susceptibility (IC50 value)",69 µM
same,IC50,"isolate HPG043, HSV-1 TK 183* (437_438insA), read-out: Drug susceptibility Foscarnet (FOS)",< 250 µM
same,IC50,"isolate HPG045, HSV-1 TK L49R (146T>G), read-out: Drug susceptibility (IC50 value)",75 µM
same,IC50,"isolate HPG045, HSV-1 TK L49R (146T>G), read-out: Drug susceptibility Foscarnet (FOS)",< 250 µM
same,IC50,"isolate HPG045, HSV-1 pol L419I (1255C>A), also TK L49R, pol A1169T, read-out: Drug susceptibility (IC50 value)",75 µM
same,IC50,"isolate HPG045, HSV-1 pol L419I (1255C>A), also TK L49R, pol A1169T, read-out: Drug susceptibility Foscarnet (FOS)",< 250 µM
same,IC50,"isolate HPG046, HSV-1 TK I166N (497T>A), read-out: Drug susceptibility (IC50 value)",< 50 µM
same,IC50,"isolate HPG046, HSV-1 TK I166N (497T>A), read-out: Drug susceptibility Foscarnet (FOS)",< 250 µM
same,IC50,"isolate HPG047, HSV-1 pol E680 (2039A>C), also TK deletion (C) nt 548-553, pol A1169T, read-out: Drug susceptibility Foscarnet (FOS)",< 250 µM
same,IC50,"isolate HPG050, HSV-1 TK Q34* (100C>T), read-out: Drug susceptibility (IC50 value)",169 µM
same,IC50,"isolate HPG050, HSV-1 TK Q34* (100C>T), read-out: Drug susceptibility Foscarnet (FOS)",< 250 µM
same,IC50,"isolate HPG051, HSV-1 pol D83A (248A>C), also TK R176stop, read-out: Drug susceptibility (IC50 value)",82.6 µM
same,IC50,"isolate HPG051, HSV-1 pol D83A (248A>C), also TK R176stop, read-out: Drug susceptibility Foscarnet (FOS)",< 250 µM
same,IC50,"isolate HPG052, HSV-1 TK Q34* (100C>T), read-out: Drug susceptibility (IC50 value)",76.9 µM
same,IC50,"isolate HPG052, HSV-1 TK Q34* (100C>T), read-out: Drug susceptibility Foscarnet (FOS)",< 250 µM
same,IC50,"isolate HPG053, HSV-1 pol L802R + A834S (2405T>G, 2500G>T), also TK R176W, read-out: Drug susceptibility Foscarnet (FOS)",> 400 µM
same,IC50,"isolate HPG053, HSV-1 pol S911N (2732G>A), also TK R176W, pol A1169T, read-out: Drug susceptibility (IC50 value)",626 µM
same,IC50,"isolate HPG053, HSV-1 pol S911N (2732G>A), also TK R176W, pol A1169T, read-out: Drug susceptibility Foscarnet (FOS)",> 400 µM
same,IC50,"isolate HPG054, HSV-1 pol E992K (2974G>A), also TK insert (G) nt 430-436, pol A1169T, read-out: Drug susceptibility (IC50 value)",52.9 µM
same,IC50,"isolate HPG054, HSV-1 pol E992K (2974G>A), also TK insert (G) nt 430-436, pol A1169T, read-out: Drug susceptibility Foscarnet (FOS)",< 250 µM
same,IC50,"isolate HPG055, HSV-1 TK V204G (611T>G), also pol A1169AT, read-out: Drug susceptibility (IC50 value)",< 50 µM
same,IC50,"isolate HPG055, HSV-1 TK V204G (611T>G), also pol A1169AT, read-out: Drug susceptibility Foscarnet (FOS)",< 250 µM
same,IC50,"read-out: Drug susceptibility (IC50 value), isolate HPG005, HSV-1 TK A192T (574G>A)",< 50 µM
same,IC50,"read-out: Drug susceptibility (IC50 value), isolate HPG006, HSV-1 pol G121S (361G>A), also a TK resistance mutation (footnote a)",115 µM
same,IC50,"read-out: Drug susceptibility (IC50 value), isolate HPG012, HSV-1 pol G985E (2954G>A), also TK A93V",92.1 µM
same,IC50,"read-out: Drug susceptibility (IC50 value), isolate HPG016, HSV-1 pol A1169T (3505G>A)",154 µM
same,IC50,"read-out: Drug susceptibility (IC50 value), isolate HPG037, HSV-1 TK L69M (205>A), also TK Y239H",80 µM
same,IC50,"read-out: Drug susceptibility (IC50 value), isolate HPG042, HSV-1 TK frameshift (881delC to 885delC)",60.7 µM
same,IC50,"read-out: Drug susceptibility (IC50 value), isolate HPG047, HSV-1 pol E680 (2039A>C), also TK deletion (C) nt 548-553, pol A1169T",92.4 µM
same,IC50,"read-out: Drug susceptibility Foscarnet (FOS), isolate HPG005, HSV-1 TK A192T (574G>A)",< 250 µM
same,IC50,"read-out: Drug susceptibility Foscarnet (FOS), isolate HPG006, HSV-1 pol G121S (361G>A), also a TK resistance mutation (footnote a)",< 250 µM
same,IC50,"read-out: Drug susceptibility Foscarnet (FOS), isolate HPG012, HSV-1 pol G985E (2954G>A), also TK A93V",< 250 µM
same,IC50,"read-out: Drug susceptibility Foscarnet (FOS), isolate HPG016, HSV-1 pol A1169T (3505G>A)",< 250 µM
same,IC50,"read-out: Drug susceptibility Foscarnet (FOS), isolate HPG042, HSV-1 TK frameshift (881delC to 885delC)",< 250 µM
